Laboratory results reported in ChEMBL document CHEMBL1201862, “PubChem BioAssay data set” (2004).
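Cells were grown in 96-well plates and exposed to each compound for 48 hours at five concentrations; endpoints were interpolated linearly between bracketing concentrations, or set to the highest concentration if not reached. GI50 marks 50% less growth.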 Active and inactive are the calls of the source. No stated cut-off is given here; in the data, active = GI50 up to about 1.1 µM and inactive = higher.

Key:
Assay in all cases: NCI tumour cell line growth inhibition, 48 h
[1] = tested on: BT-549
[2] = tested on: HT-29
[3] = tested on: SK-MEL-28
[4] = tested on: 786-0
[5] = tested on: MOLT-4
[6] = tested on: HCC 2998
[7] = tested on: ACHN
[8] = tested on: TK-10
[9] = tested on: CCRF-CEM
[10] = tested on: SK-MEL-5
[11] = tested on: NCI-H23
[12] = tested on: OVCAR-3
[13] = tested on: SW-620
[14] = tested on: SK-OV-3
[15] = tested on: SNB-19
[16] = tested on: RPMI-8226
[17] = tested on: SNB-75
[18] = tested on: UACC-257
[19] = tested on: KM12
[20] = tested on: A498

Structure (SMILES) | GI50 [1] | GI50 [2] | GI50 [3] | GI50 [4] | GI50 [5] | GI50 [6] | GI50 [7] | GI50 [8] | GI50 [9] | GI50 [10] | GI50 [11] | GI50 [12] | GI50 [13] | GI50 [14] | GI50 [15] | GI50 [16] | GI50 [17] | GI50 [18] | GI50 [19] | GI50 [20]
COc1cccc(C=C(C#N)C#N)c1OC | > 100 µM (inactive) | > 100 µM (inactive) | > 100 µM (inactive) | > 100 µM (inactive) | > 100 µM (inactive) | > 100 µM (inactive) | > 100 µM (inactive) | > 100 µM (inactive) | 83.6 µM (inactive) | > 100 µM (inactive) | > 100 µM (inactive) | > 100 µM (inactive) | > 100 µM (inactive) | 12.3 µM (inactive) | > 100 µM (inactive) | 43.5 µM (inactive) | 43.2 µM (inactive) | > 100 µM (inactive) | > 100 µM (inactive) | 
C[C@]12CC/C(=N\O)C=C1CC[C@@H]1[C@@H]2CC[C@]2(C)C(=N/O)/C(=C/c3cccnc3)C[C@@H]12 | 12.6 µM (inactive) | 19 µM (inactive) | 16.9 µM (inactive) | 28.4 µM (inactive) | 0.546 µM (active) |  | 16.8 µM (inactive) | 15.1 µM (inactive) | 7.38 µM (inactive) |  | 32.6 µM (inactive) |  | 31.8 µM (inactive) | 39.1 µM (inactive) | 23.4 µM (inactive) | 1.74 µM (inactive) |  | 17.9 µM (inactive) | 6.98 µM (inactive) | 14.5 µM (inactive)
Cc1ccc(C(=O)NN=C(/N=N/c2cccc(C)c2)c2ccc(N(C)C)cc2)cc1 | > 100 µM (inactive) | > 100 µM (inactive) | > 100 µM (inactive) | > 100 µM (inactive) | > 100 µM (inactive) | > 100 µM (inactive) | > 100 µM (inactive) | > 100 µM (inactive) | > 100 µM (inactive) | > 100 µM (inactive) | > 100 µM (inactive) | > 100 µM (inactive) | > 100 µM (inactive) | 64 µM (inactive) | > 100 µM (inactive) | > 100 µM (inactive) |  | > 100 µM (inactive) | > 100 µM (inactive) | 
COC(=O)c1c(OC(C)=O)ccc2c1c1c(OC(C)=O)c3ccccc3c(OC(C)=O)c1n2C | 21.8 µM (inactive) | 38.4 µM (inactive) | 53.7 µM (inactive) | 26.4 µM (inactive) | 15.4 µM (inactive) | 23.7 µM (inactive) | 15.4 µM (inactive) | 26.8 µM (inactive) | 23.2 µM (inactive) | 6.04 µM (inactive) | 40.8 µM (inactive) | 14.7 µM (inactive) |  | 16.1 µM (inactive) | 39.4 µM (inactive) | 16.2 µM (inactive) | 2.06 µM (inactive) |  | 20.5 µM (inactive) | 
O=C(c1nsc(Cl)c1Cl)N1CCCCC1 | > 100 µM (inactive) | > 100 µM (inactive) | > 100 µM (inactive) | > 100 µM (inactive) | > 100 µM (inactive) | > 100 µM (inactive) |  | > 100 µM (inactive) | > 100 µM (inactive) | > 100 µM (inactive) | > 100 µM (inactive) | > 100 µM (inactive) | > 100 µM (inactive) | > 100 µM (inactive) | 82.8 µM (inactive) | > 100 µM (inactive) | > 100 µM (inactive) | > 100 µM (inactive) | > 100 µM (inactive) | 
CC(=O)Oc1ccc2c(c1)oc1c3ccc(OC(C)=O)cc3n(C)c(=O)c21 | 93.1 µM (inactive) | 31.8 µM (inactive) | 16.3 µM (inactive) | 1.15 µM (inactive) | 25.1 µM (inactive) | 17.2 µM (inactive) | 37.4 µM (inactive) | 70.8 µM (inactive) | 18.3 µM (inactive) | 4.71 µM (inactive) | 46.3 µM (inactive) | 32.5 µM (inactive) | 26.4 µM (inactive) | 14.8 µM (inactive) | > 100 µM (inactive) |  | 1.14 µM (inactive) | 21.9 µM (inactive) | 3.78 µM (inactive) | 
